Laboratory results from patent publication US9156810B2, “Treatment of inflammatory bowel disease” (ALLERGAN, INC., priority 2003, dated 2015).

What was measured:
[1] = target: T1, hEP2 (Homo sapiens (Human), UniProt P43116); test: Radioligand binding ([3H]PGE2), HEK-293 cell membranes expressing EP2 receptor; conditions: top number in Table 2
Method: (§1) HEK-293 cells stably expressing the human or feline FP receptor, or EP1, EP2, EP3, or EP4 receptors were washed with TME buffer, scraped from the bottom of the flasks, and homogenized for 30 sec using a Brinkman PT 10/35 polytron. TME buffer was added to achieve a final 40 ml volume in the centrifuge tubes (the composition of TME is 100 mM TRIS base, 20 mM MgCl2, […]; 10N HCl is added to achieve a pH of 7.4).
(§2) The cell homogenate was centrifuged at 19000 r.p.m. for 20 min at 4° C. using a Beckman Ti-60 rotor. The resultant pellet was resuspended in TME buffer to give a final 1 mg/ml protein concentration, as determined by Biorad assay. Radioligand binding competition assays vs. [^3H-]17-phenyl PGF2α, (5 nM) were performed in a 100 μl volume for 60 min. Binding reactions were started by adding plasma membrane fraction. The reaction was terminated by the addition of 4 ml ice-cold TRIS-HCl buffer and rapid filtration through glass fiber GF/B filters using a Brandel cell harvester. The filters were washed 3 times with ice-cold buffer and oven dried for one hour. Non-specific binding was determined with 10 uM unlabeled 17-phenyl PGF2α.
(§3) [^3H-] PGE2 (5 nM; specific activity 180 Ci mmol) was used as the radioligand for EP receptors. Binding studies employing EP1, EP2, EP3, EP4 were performed in duplicate in at least three separate experiments. A 200 μl assay volume was used. Incubations were for 60 min at 25° C. and were terminated by the addition of 4 ml of ice-cold 50 mM TRIS-HCl, followed by rapid filtration through Whatman GF/B filters and three additional 4 ml washes in a cell harvester (Brandel). Non-specific binding determined with 10^−5M of unlabeled PGE2.

[2] = target: T2, hEP4 (Homo sapiens (Human), UniProt P35408); test: Radioligand binding ([3H]PGE2), HEK-293 cell membranes expressing EP4 receptor; conditions: top number in Table 2
T2 sequence (P35408 whole entry, looked up): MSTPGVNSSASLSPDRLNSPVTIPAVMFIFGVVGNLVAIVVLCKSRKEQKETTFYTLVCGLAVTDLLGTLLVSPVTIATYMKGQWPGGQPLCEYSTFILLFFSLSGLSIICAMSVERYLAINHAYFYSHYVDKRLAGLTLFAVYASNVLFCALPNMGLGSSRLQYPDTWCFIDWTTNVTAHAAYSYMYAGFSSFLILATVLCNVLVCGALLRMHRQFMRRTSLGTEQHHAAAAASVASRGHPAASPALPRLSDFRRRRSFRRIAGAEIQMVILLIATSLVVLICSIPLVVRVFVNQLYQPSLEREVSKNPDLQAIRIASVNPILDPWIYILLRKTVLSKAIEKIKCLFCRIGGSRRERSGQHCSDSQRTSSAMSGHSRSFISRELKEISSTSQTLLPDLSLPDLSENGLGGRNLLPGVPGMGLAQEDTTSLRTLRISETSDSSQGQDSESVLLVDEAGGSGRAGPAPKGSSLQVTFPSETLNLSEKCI
Method: as §1, §2, §3

[3] = target: hIP (Homo sapiens (Human), UniProt P43119); test: Table 2 top number, hIP (radioligand binding per footnote); conditions: top number in Table 2
Chain of hIP (P43119 whole entry): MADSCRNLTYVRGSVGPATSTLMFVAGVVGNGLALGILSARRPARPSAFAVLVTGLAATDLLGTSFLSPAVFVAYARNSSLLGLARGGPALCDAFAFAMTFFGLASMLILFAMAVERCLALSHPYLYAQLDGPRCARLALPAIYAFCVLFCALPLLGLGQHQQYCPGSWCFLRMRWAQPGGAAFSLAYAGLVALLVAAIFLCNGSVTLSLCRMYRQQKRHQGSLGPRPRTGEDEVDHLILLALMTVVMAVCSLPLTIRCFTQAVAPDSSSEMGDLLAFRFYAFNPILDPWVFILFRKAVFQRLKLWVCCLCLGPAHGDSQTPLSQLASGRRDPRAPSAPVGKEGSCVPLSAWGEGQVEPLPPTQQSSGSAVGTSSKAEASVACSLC

[4] = target: T2, hEP4; test: FLIPR calcium signal, HEK-293(EBNA) cells expressing hEP4/Gqs5; format: cell-based; conditions: bottom number in Table 2, read-out: hEP4 functional EC50
Method: (§4) HEK-293(EBNA) cells, stably expressing one type or subtype of recombinant human prostaglandin receptors (prostaglandin receptors expressed: hDP/Gqs5; hEP1; hEP2/Gqs5; hEP3A/Gqi5; hEP4/Gqs5; hFP; hIP; hTP), were cultured in 100 mm culture dishes in high-glucose DMEM medium containing 10% fetal bovine serum, 2 mM 1-glutamine, 250 μg/ml geneticin (G418) and 200 μg/ml hygromycin B as selection markers, and 100 units/ml penicillin G, 100 μg/m streptomycin and 0.25 μg/m amphotericin B.
(§5) Cells were seeded at a density of 5×10^4 cells per well in Biocoat® Poly-D-lysine-coated black-wall, clear-bottom 96-well plates (Becton-Dickinson) and allowed to attach overnight in an incubator at 37° C. Cells were then washed two times with HBSS-HEPES buffer (Hanks Balanced Salt Solution without bicarbonate and phenol red, 20 mM HEPES, pH 7.4) using a Denley Cellwash plate washer (Labsystems). After 45 minutes of dye-loading in the dark, using the calcium-sensitive dye Fluo-4 AM at a final concentration of 2 μM, plates were washed four times with HBSS-HEPES buffer to remove excess dye leaving 100 μl in each well. Plates were re-equilibrated to 37° C. for a few minutes.
Cells were excited with an Argon laser at 488 nm, and emission was measured through a 510-570 nm bandwidth emission filter (FLIPR™, Molecular Devices, Sunnyvale, Calif.). […] The peak increase in fluorescence intensity was recorded for each well. On each plate, four wells each served as negative (HBSS-HEPES buffer) and positive controls (standard agonists: BW245C (hDP); PGE2 (hEP1; hEP2/Gqs5; hEP3A/Gqi5; hEP4/Gqs5); PGF2 (hFP); carbacyclin (hIP); U-46619 (hTP), depending on receptor). The peak fluorescence change in each drug-containing well was then expressed relative to the controls.
(§6) Compounds were tested in a high-throughput (HTS) or concentration-response (CoRe) format. In the HTS format, forty-four compounds per plate were examined in duplicates at a concentration of 10^−5 M. To generate concentration-response curves, four compounds per plate were tested in duplicates in a concentration range between 10^−5 and 10^−11 M. The duplicate values were averaged.

[5] = target: hTP (Homo sapiens (Human), UniProt P21731); test: Table 2 top number, hTP (radioligand binding per footnote); conditions: top number in Table 2
Chain of hTP (P21731 whole entry): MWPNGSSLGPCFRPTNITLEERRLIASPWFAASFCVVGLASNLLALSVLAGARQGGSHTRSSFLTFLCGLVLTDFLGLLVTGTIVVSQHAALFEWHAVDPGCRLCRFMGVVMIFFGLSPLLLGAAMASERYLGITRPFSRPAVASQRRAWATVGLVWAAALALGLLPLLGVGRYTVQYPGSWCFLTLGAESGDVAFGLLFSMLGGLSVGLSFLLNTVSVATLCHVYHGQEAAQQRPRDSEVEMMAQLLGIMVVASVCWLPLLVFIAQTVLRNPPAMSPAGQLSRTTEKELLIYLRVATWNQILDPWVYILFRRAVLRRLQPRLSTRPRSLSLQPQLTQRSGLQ

[6] = target: hEP1 (Homo sapiens (Human), UniProt P34995); test: Radioligand binding ([3H]PGE2), HEK-293 cell membranes expressing EP1 receptor; conditions: top number in Table 2
Chain of hEP1 (P34995 whole entry): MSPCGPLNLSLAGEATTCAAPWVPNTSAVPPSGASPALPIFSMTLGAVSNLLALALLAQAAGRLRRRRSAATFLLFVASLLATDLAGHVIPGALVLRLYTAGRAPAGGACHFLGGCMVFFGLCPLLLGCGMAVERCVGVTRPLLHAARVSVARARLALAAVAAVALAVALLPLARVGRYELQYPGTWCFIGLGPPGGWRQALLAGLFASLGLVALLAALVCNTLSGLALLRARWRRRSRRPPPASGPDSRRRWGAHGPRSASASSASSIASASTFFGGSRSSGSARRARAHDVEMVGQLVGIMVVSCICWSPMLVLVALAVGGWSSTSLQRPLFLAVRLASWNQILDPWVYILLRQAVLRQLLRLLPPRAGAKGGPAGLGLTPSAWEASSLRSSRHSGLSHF
Method: as §1, §2, §3

[7] = target: hEP3D (Homo sapiens (Human), UniProt P43115); test: Radioligand binding ([3H]PGE2), HEK-293 cell membranes expressing EP3 receptor; conditions: top number in Table 2
Chain of hEP3D (P43115 other isoform, or with tags, fused parts or gaps): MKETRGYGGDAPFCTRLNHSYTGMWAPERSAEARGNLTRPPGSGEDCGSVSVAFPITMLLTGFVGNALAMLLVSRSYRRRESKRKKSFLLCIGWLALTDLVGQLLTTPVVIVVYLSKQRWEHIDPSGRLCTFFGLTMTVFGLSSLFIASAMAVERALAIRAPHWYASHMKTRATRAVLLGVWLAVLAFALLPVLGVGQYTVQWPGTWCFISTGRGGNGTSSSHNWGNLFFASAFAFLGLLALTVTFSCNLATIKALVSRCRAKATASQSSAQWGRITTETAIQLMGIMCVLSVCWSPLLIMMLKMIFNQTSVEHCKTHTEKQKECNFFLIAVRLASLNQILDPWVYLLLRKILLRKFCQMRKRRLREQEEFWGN
Method: as §1, §2, §3

[8] = target: hEP3A (Homo sapiens (Human), UniProt P43115); test: FLIPR calcium signal, HEK-293(EBNA) cells expressing hEP3A/Gqi5; format: cell-based; conditions: for EC50: bottom number in Table 2, read-out: hEP3A functional EC50
Chain of hEP3A (P43115 whole entry): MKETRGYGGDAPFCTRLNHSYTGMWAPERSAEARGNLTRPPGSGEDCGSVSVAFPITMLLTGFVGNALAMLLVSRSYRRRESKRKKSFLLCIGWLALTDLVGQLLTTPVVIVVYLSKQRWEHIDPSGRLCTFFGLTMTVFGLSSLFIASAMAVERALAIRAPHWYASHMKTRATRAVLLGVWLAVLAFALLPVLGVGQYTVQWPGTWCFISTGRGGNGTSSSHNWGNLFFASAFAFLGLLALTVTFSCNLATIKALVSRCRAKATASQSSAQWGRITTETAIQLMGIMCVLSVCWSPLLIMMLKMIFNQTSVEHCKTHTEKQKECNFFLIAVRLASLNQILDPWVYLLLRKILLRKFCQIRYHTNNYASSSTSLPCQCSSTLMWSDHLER
Method: as §4, §5
Cells were excited with an Argon laser at 488 nm, and emission was measured through a 510-570 nm bandwidth emission filter (FLIPR™, Molecular Devices, Sunnyvale, Calif.). Drug solution was added in a 50 μl volume to each well to give the desired final concentration. The peak increase in fluorescence intensity was recorded for each well. On each plate, four wells each served as negative (HBSS-HEPES buffer) and positive controls (standard agonists: BW245C (hDP); PGE2 (hEP1; hEP2/Gqs5; hEP3A/Gqi5; hEP4/Gqs5); PGF2 (hFP); carbacyclin (hIP); U-46619 (hTP), depending on receptor). The peak fluorescence change in each drug-containing well was then expressed relative to the controls.
as §6, with “averaged. In either, HTS or CoRe format each compound was tested on at least 3 separate plates using cells from different passages to give an n≧3.” for “averaged.”

[9] = target: hDP (Homo sapiens (Human), UniProt Q13258); test: Table 2 top number, hDP (radioligand binding per footnote); conditions: top number in Table 2
Chain of hDP (Q13258 whole entry): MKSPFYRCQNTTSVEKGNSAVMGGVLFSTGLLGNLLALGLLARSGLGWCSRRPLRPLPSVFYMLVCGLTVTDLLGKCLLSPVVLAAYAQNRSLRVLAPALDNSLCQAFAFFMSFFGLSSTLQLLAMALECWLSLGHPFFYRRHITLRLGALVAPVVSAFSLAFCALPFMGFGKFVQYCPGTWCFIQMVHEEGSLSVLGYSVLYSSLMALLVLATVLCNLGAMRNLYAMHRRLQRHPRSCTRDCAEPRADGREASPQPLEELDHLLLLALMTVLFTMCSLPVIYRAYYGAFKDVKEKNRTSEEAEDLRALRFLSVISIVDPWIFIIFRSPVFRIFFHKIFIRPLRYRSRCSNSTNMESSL

[10] = target: T1, hEP2; test: FLIPR calcium signal, HEK-293(EBNA) cells expressing hEP2/Gqs5; format: cell-based; conditions: bottom number in Table 2, read-out: hEP2 functional EC50
Method: as §4
Cells were seeded at a density of 5×10^4 cells per well in Biocoat® Poly-D-lysine-coated black-wall, clear-bottom 96-well plates (Becton-Dickinson) and allowed to attach overnight in an incubator at 37° C. Cells were then washed two times with HBSS-HEPES buffer (Hanks Balanced Salt Solution without bicarbonate and phenol red, 20 mM HEPES, pH 7.4) using a Denley Cellwash plate washer (Labsystems). […]
Cells were excited with an Argon laser at 488 nm, and emission was measured through a 510-570 nm bandwidth emission filter (FLIPR™, Molecular Devices, Sunnyvale, Calif.). […] The peak increase in fluorescence intensity was recorded for each well. […] The peak fluorescence change in each drug-containing well was then expressed relative to the controls. […]

T1 sequence (P43116 whole entry): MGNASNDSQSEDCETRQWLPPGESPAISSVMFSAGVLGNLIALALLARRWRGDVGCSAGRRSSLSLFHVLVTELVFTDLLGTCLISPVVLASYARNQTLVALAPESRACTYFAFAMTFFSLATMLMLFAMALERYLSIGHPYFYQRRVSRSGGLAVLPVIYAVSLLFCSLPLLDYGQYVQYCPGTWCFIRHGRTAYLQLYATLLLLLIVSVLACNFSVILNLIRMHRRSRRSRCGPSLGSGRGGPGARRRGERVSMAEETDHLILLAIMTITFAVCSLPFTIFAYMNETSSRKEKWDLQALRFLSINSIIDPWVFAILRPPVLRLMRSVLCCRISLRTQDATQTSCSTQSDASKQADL

Compound | hEP2 radioligand binding IC50 [1] | IC50 [2] | EC50 [4] | IC50 [6] | EC50 [8] | IC50 [7] | IC50 [5] | other results
COC(=O)CSCCCS[C@H]1C(=O)C(C)(C)[C@@H](O)[C@@H]1/C=C/C(O)CCc1sc2ccccc2c1Cl (single isomer, unassigned) [Compound 21] | > 10000 nM | 98 nM | – | – | – | – | – | –
CC1(C)C(=O)[C@H](CC#CCCCC(=O)O)[C@@H](/C=C/C(O)CCc2sc3ccccc3c2Cl)[C@@H]1O (single isomer, unassigned) [Compound 36] | – | 200 nM | 66 nM | – | – | – | – | hIP radioligand binding IC50 [3]: > 10000 nM
CC1(C)C(=O)[C@H](CC#CCCCC(=O)O)[C@@H](/C=C/C(O)CCc2sc3ccccc3c2Cl)[C@@H]1O (single isomer, unassigned) [Compound 37] | – | 100 nM | 32 nM | – | – | – | – | hIP radioligand binding IC50 [3]: > 10000 nM
CC1(C)C(=O)[C@H](C/C=C\CCCC(=O)O)[C@@H](/C=C/C(O)CCc2sc3ccccc3c2Cl)[C@@H]1O (single isomer, unassigned) [Compound 41] | > 10000 nM | 20 nM | – | – | – | – | – | hTP radioligand binding IC50 [5]: > 10000 nM
CC1(C)C(=O)[C@H](C/C=C\CCCC(=O)O)[C@@H](/C=C/C(O)Cc2ccccc2)[C@@H]1O (single isomer, unassigned) [Compound 46] | > 10000 nM | 4 nM | 0.4 nM | 290 nM | 589 nM | – | – | hEP3D radioligand binding IC50 [7]: > 10000 nM
COC(=O)CCC/C=C\C[C@H]1C(=O)C(C)(C)[C@@H](O)[C@@H]1/C=C/C(O)CCc1ccccc1 (single isomer, unassigned) [Compound 50] | – | 2400 nM | 3160 nM | 638 nM | – | 6610 nM | – | hTP radioligand binding IC50 [5]: > 10000 nM; hEP3A functional EC50 ([8]; bottom number in Table 2): > 10000 nM
CCCCC[C@H](O)/C=C/[C@@H]1[C@@H](CC#CCCCC(=O)O)C(=O)C(C)(C)[C@H]1O [Compound 43, 7-[(1R,4S,5R)-4-Hydroxy-5-((E)-(S)-3-hydroxy-oct-1-enyl)-3,3-dimethyl-2-oxo-cyclopentyl]-hept-5-ynoic acid] | – | 400 nM | 63 nM | > 10000 nM | 11 nM | 1700 nM | 18 nM | IC50 [3]: 3980 nM
CCCCC[C@H](O)/C=C/[C@@H]1[C@@H](C/C=C\CCCC(=O)O)C(=O)C(C)(C)[C@H]1O [Compound 44, (Z)-7-[(1R,4S,5R)-4-Hydroxy-5-((E)-(S)-3-hydroxy-oct-1-enyl)-3,3-dimethyl-2-oxo-cyclopentyl]-hept-5-enoic acid] | – | 5.5 nM | 0.2 nM | 782 nM | 4.6 nM | 300 nM | 18 nM | IC50 [1]: 1500 nM; hDP radioligand binding IC50 [9]: > 10000 nM; IC50 [3]: 284 nM; EC50 [10]: 944 nM
CCCCC[C@H](O)/C=C/[C@@H]1[C@@H](C/C=C\CCCC(=O)OC)C(=O)C(C)(C)[C@H]1O [Compound 45, (Z)-7-[(1R,4S,5R)-4-Hydroxy-5-((E)-(S)-3-hydroxy-oct-1-enyl)-3,3-dimethyl-2-oxo-cyclopentyl]-hept-5-enoic acid methyl ester] | – | 400 nM | 51 nM | – | 531 nM | > 10000 nM | 631 nM | –
